# Assay results taken from PMC12525728, “Safety, Pharmacokinetics, Translational and Molecular Mechanistic Insights on the Prostate Cancer Recurrence Suppressor Pseurotin A” (Molecules, 2025).
# Test: Chemical stability of PsA in mice plasma (HPLC)
# Assay type: in vitro ADME
# Conditions: for Stability 24 h Room Temperature, Accuracy (%) / Stability −20 °C for 2 Weeks, Accuracy (%) / Stability Freeze-Thaw Cycles, Accuracy (%): mice plasma, n = 3; for Stability Freeze-Thaw Cycles, Accuracy (%): three cycles
# Method: Chromatographic analysis was conducted on a Shimadzu HPLC system (Shimadzu USA Manufacturing Inc., Canby, OR, USA) equipped with an SPD-20A UV detector, 20 µL manual sampler, LC-20AD pump, a degasser, and an automated temperature-controlled column compartment. The UV detector, column oven, and LC-20AD pump were coupled to the Shimadzu system and controlled through Lab Solutions software, v5.111. Stationary phase separation was carried out using a Shimadzu Shim-Pack GWS C18 column (4.6 × 250 mm, 5 µm) equipped with a Zorbax ODS guard column (4.6 × 12.5 mm, 5 µm) by gradient elution with the column temperature maintained at 35 °C. The UV detector wavelength was set and measured at 254 nm. A constant flow rate of 1.0 mL/min and manual injection of 20 µL were employed throughout the HPLC analysis. A mobile phase consisting of aqueous HCOOH (0.1%, v/v, mobile system A) and HPLC grade CH3CN (mobile system B) utilized with a gradient elution of 30–60% B at 0–5 min, 60–85% B at 5–8 min, 85–95% B at 8–11.5 min, and 95% B at 11.5–18 min. The post-run re-equilibration time was 5 min.
# Five µL of the IS ([…]) and 20 µL of 50, 40, 30, 20, 10, 8, and 4 µg/mL PsA standard solutions were combined with 15 µL freshly extracted blank mouse plasma. 300 µL of a 70% EtOAc/30% isopropanol mixture was added and vortexed for 30 s. Following centrifugation at 15,000× g for 10 min, the supernatant was transferred to a 2 mL Eppendorf tube for nitrogen evaporation. The residues were reconstituted in 25 µL HPLC-grade MeOH before being subjected to 30 s sonication followed by centrifugation at 15,000× g for 10 min. Afterwards, the entire sample was immediately injected for RP-HPLC analysis. The mouse plasma samples used in the PK study were subjected to the same extraction method, minus the addition of the PsA standard solutions. After weighing, each mouse organ was reconstituted in 500 µL PBS, then homogenized using the MISONIX Sonicator (Division of QSonica LLC, Newtown, CT, USA). Samples were centrifuged at 15,000× g for 10 min, and the supernatant was collected and transferred to a 2 mL Eppendorf. About 5 µL of IS (25 µL/mL) and 300 µL of a 70% EtOAc/30% isopropanol mixture were added to 100 µL of supernatant and vortexed for 30 s. Following centrifugation at 15,000× g for 10 min, the supernatant was transferred to a 2 mL Eppendorf tube and evaporated under N2. The remains were reconstituted in 40 µL HPLC-grade methanol before being subjected to 30 s sonication followed by centrifugation at 15,000× g for 10 min.
# The stability of PsA at room temperature was determined by preparing six separate mouse plasma samples for each concentration. Three samples for each concentration were immediately extracted and injected into the HPLC. The three remaining samples were left on a lab bench protected from light for 24 h before being extracted and injected into the HPLC. The concentrations measured at the 0 and 24 h time points were compared. The stability of PsA after three freeze-thaw cycles was assessed by preparing six separate mouse plasma samples for each concentration. Three samples for each concentration were immediately extracted and injected into the HPLC. The three remaining samples for each concentration were frozen and thawed in a −80 °C freezer three separate times before being extracted and injected into the HPLC. The stability of PsA at −20 °C for 2 weeks was determined by preparing six separate mouse plasma samples for each concentration. Three samples for each concentration were immediately extracted and injected into the HPLC. The three remaining samples were left in a −20 °C freezer for two weeks before being thawed, extracted, and analyzed on the HPLC.
smiles,measurement,setting,value
"CC/C=C\[C@H](O)[C@H](O)C1=C(C)C(=O)[C@]2(O1)C(=O)N[C@@](OC)(C(=O)c1ccccc1)[C@@H]2O [PsA, pseurotin A]","Stability 24 h Room Temperature, Accuracy (%)",4 µg/mL,35.2%
same,"Stability −20 °C for 2 Weeks, Accuracy (%)",4 µg/mL,83.6%
same,"Stability Freeze-Thaw Cycles, Accuracy (%)",4 µg/mL,94.0%
same,"Stability 24 h Room Temperature, Accuracy (%)",50 µg/mL,35.5%
same,"Stability −20 °C for 2 Weeks, Accuracy (%)",50 µg/mL,93.5%
same,"Stability Freeze-Thaw Cycles, Accuracy (%)",50 µg/mL,108.1%
same,"Stability 24 h Room Temperature, Accuracy (%)",250 µg/mL,48.8%
same,"Stability −20 °C for 2 Weeks, Accuracy (%)",250 µg/mL,90.6%
same,"Stability Freeze-Thaw Cycles, Accuracy (%)",250 µg/mL,100.6%
same,concentration loss,"mouse plasma, room temperature, 24 h",over 50%
